Experimental findings from patent US8314140B2, “4-hydroxythiobenzamide derivatives of drugs” (Antibe Therapeutics Inc., priority 2006, dated 2012) are described below.

Usually melting point stands for the temperature of the solid-liquid transition.

SMILES strings stand for the structures. Entries after “also recorded” stand apart in the source; their conditions may differ.

The target in series [1] is COX-1 (Homo sapiens, UniProt P23219). The note with it: FIG. 16. How it is done:
Aliquots (0.5 mL) of blood from healthy human volunteers were added to glass tubes containing 10 uL of methanol alone, or one of the test drugs prepared such that the final concentration would be 0.1, 0.3, 1 or 3 μM. The tubes were placed in water bath (37° C.) with gentle shaking for 45 min, after which they were centrifuged (1,000×g) for 10 minutes. The concentration of thromboxane B2 in each sample was then determined using a specific ELISA, as in the studies shown in FIG. 11.

Series [2] relates to leukocyte adherence to the vascular endothelium. The experiment in a line: Leukocyte adherence after NSAID or derivative, intravital microscopy (Example 21). The series is classed as in vivo, rat. As to conditions: for number of adherent leukocytes compared to the parent drug alone: comment on Table 2. The text has this:
(§1) Briefly, post-capillary mesenteric venules in anestheitized rats are examined under a light microscope.

Series [3] relates to gastric damage. The experiment in a line: Incidence of gastric damage at end of the leukocyte adherence experiment. As to conditions: for Percent Incidence of Gastric Damage: intragastric 30 μmol/kg (naproxen and Compound XX 60 μmol/kg), end of experiment.
Source text: as §1

Series [4] deals with gastric damage. The experiment in a line: Gastric damage score 3 h after oral dosing. The class given is in vivo, rat. As to conditions: oral 60 μmol/kg, 3 hours; FIG. 10. The text has this: There were 5 rats in each group.
Each group consisted of 5 rats.

Series [5] concerns the target T1, COX-1 (Rattus norvegicus, UniProt Q63921).
T1 construct: whole blood thromboxane synthesis, which occurs via COX-1; from tissue; host or cells: rat whole blood, ex vivo after oral dosing
T1 sequence (Q63921 27-602): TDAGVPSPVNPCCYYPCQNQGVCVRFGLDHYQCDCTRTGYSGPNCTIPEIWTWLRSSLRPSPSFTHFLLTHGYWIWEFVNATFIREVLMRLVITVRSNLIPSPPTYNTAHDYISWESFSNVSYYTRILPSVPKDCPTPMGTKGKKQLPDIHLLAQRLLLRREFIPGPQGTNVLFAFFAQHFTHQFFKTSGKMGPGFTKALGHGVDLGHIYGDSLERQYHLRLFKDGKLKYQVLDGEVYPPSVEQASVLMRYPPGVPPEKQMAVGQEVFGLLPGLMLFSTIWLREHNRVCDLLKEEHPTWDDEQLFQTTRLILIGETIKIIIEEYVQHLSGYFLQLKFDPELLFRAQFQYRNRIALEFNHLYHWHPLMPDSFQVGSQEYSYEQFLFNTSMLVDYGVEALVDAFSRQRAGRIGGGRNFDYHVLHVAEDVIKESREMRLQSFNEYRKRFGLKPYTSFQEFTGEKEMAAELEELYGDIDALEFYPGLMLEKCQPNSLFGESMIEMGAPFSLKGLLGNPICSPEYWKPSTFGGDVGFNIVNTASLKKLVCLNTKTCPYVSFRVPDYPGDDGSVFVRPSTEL
The series can be described thus: Whole blood thromboxane B2 synthesis in treated rats. The class given is in vivo. As to conditions: 60 μmol/kg oral; versus vehicle; FIG. 11. The method, then:
Inhibition of COX-1 was also measured using the same rats. […] The samples were then centrifuged for 3 min at 9,000 g and the supernatant was frozen at −80° C. for subsequent measurement of thromboxane B2 concentrations using a specific ELISA.
Inhibition of COX-1 was also measured using the same rats, using the same method as described for FIG. 11.

Series [6] deals with gastric ulcers. The experiment in a line: Healing of acetic acid-induced gastric ulcers. The series is classed as in vivo, rat. The note with it: oral twice-daily for 4 days; 30 μmol/kg (naproxen, Compound XX 60 μmol/kg); FIG. 17. How it is done: Gastric ulcers were induced via serosal application of acetic acid, as described by Elliott et al., A nitric oxide-releasing nonsteroidal anti-inflammatory drug accelerates gastric ulcer healing in rats. […] After 4 days of such treatment, the rats were euthanized and the stomach was excised and photographed. The area (in mm^2) of the ulcer was determined planimetrically by an individual unaware of the treatments given to the rats.

Series [7] is described as follows: H2S generation in buffer and liver homogenate (Example 15). The series is classed as in vitro ADME, rat. The note with it: 1 mM compound, FIG. 6. The method, then: (Compound XXVII) was tested for H2S generation under three different conditions. Concentrations of H2S that were generated within 1 hour from 1 mM concentrations of L-cysteine, 4-HBT (4-hydroxythiobenzamide) and 5-amino-2-(4-thiocarbamoyl-phenoxycarbonyloxy)-benzoic acid were measured. H2S release was tested under three conditions: (i) when the compound was in buffer, (ii) when the compound was in a liver homogenate, and (iii) when the compound was in the liver homogenate together with an inhibitor of cystathionine γ-lyase (PAG=DL-propargylglycine; 2 mM). Results are shown in FIG. 6. *p<0.05 compared to the release from the vehicle group. ^ψp>0.05 versus the corresponding ‘homogenate’ group. The enzymatic capacity for H2S production was determined using the same reactor as described previously (Khan et al. (1980) Microchem J 25: 388-395, incorporated herein by reference). Two ml of an assay reaction mixture was introduced in the reactor. The mixture contained 1 mM L-cysteine (or compound), 2 mM pyridoxal 5′-phosphate, 100 mM potassium phosphate buffer (pH=7.4). A constant stream of nitrogen was passed through the mixture via gas-inlet capillary. Reactions were initiated by transferring the tubes from ice bath to a 37° C. water bath. The stream of nitrogen carried the sulfide acid in the second reactor containing 4 ml of sulfide anti-oxidant buffer (SAOB) solution, consisting of 2M KOH, 1M salicylic acid and 0.22M ascorbic acid at pH 12.8[5]. After incubating at 37° C. for 90 minutes, 1 ml of 10% trichloroacetic acid solution was added to mixture to stop the reaction. The remainder H2S in the mixture was carried out via nitrogen stream by other 60 minutes of incubation at 37° C. The concentration of sulfide in SAOB solution was measured with a sulfide sensitive electrode (Model 9616 S^2−/Ag^+ electrode, Orion Research, Beverly, Mass., USA). For studies in which the test compounds were incubated in liver homogenate, 100-150 mg of isolated rat livers were homogenized in 1 ml of ice-cold T-PER protein extractor. The homogenates were added to the reaction mixture at a concentration of 10% (wt/vol). DL-propargylglycine 2 mM was incubated with liver homogenates for 5 min at 37° C. prior the enzyme reaction. Khan, S. U. Morris, G. F. and Hidiroglou, M. (1980) Rapid estimation of sulfide in rumen and blood with a sulfide-specific ion electrode. Microchem J. 25:388-395, incorporated herein by reference.

Series [8] relates to carrageenan-induced paw edema. The series can be described thus: Carrageenan hindpaw edema model. The class given is in vivo, rat. As to conditions: oral 30 min prior to carrageenan; diclofenac 1, 3 or 10 mg/kg; Compound XVII equimolar to diclofenac 3 mg/kg; FIG. 14. The method, then:
Male, Wistar rats weighing 175-200 g were given the test compounds orally 30 min prior to subplantar injection of 100 ul of 1% lambda carrageenan.

In series [9] the test system is visceral pain perception. The series can be described thus: Rat model of visceral pain perception (colorectal distension, AWR score). The series is classed as in vivo. The method, then:
A rat model of visceral pain perception, a pre-clinical model of irritable bowel syndrome, was used in the following example. Rats (male, Wistar, 200-250 g, obtained from Charles River, Monza, Italy), were housed in plastic cages and maintained under controlled conditions with 12-hours light/dark cycle with lights on at 7.00 AM. Tap water and standard laboratory chow were freely available. Before experiments, rats were individually trained by spending 2-3 hours per day in a plexiglass cage for 2-3 days. It allowed them to adjust to a movement-restriction environment. Food was withheld for 12 hours before colorectal distension (CRD) recording were performed. Experiments were performed in awake rats and were conducted in a blind manner in that the observer was not aware of the identity of drug administered to each animal.
In the testing day, rats were sedated with ether inhalation and a 2 cm long latex balloon was inserted intrarectally 2 cm from the anal verge and fixed at the base of the tail. The balloon was connected via a double-barreled cannula to a pressure transducer to continuously monitoring the rectal pressure by a computer (PowerLab PC, A.D. Instruments, Milford, Mass., USA) and to a syringe for inflation/deflation of the balloon. The rats were then housed in a small cage (20×8×8 cm) on an elevated Plexiglas™ platform and allowed to wake up and adapt for 1 hour. After recovery from sedation, animals underwent the CRD procedure and behavioral responses were tested. The night before the experiments, the balloons were inflated and left overnight so the latex stretched and the balloons became compliant.
CRD of 20 seconds, performed every 5 minutes, was applied in increment of 0.4 ml starting from 0.4 ml up to 1.6 ml water. To achieve an accurate measurement of the colonic parameters and perception, the distensions were repeated twice for each intensity and data for each animal were averaged for analysis. Each animal underwent a double set of CRD. Twenty minutes after the first sequence of CRD (0.4 mL-1.6 ml water), drugs were administered intraperitoneally (i.p.) and a second set of CRD was performed. Behavioral responses during the first and the second set of CRD were assessed and compared.
Behavioral response to CRD was assessed by measuring the abdominal withdrawal reflex (AWR) using a semiquantitative score (1).
A rat model of visceral pain perception as described above was used to compare pain perception scores for 5-amino-2-(4-thiocarbamoyl-phenoxycarbonyloxy)-benzoic acid (Compound XXVII) with or without glibenclamide, an inhibitor of ATP-sensitive K^+ (KATP) channels.
Experiments were carried out as described in Example 13, except that groups of 5 rats each were treated with vehicle, trimebutine maleate (10 mg/kg), or with equimolar doses of trimebutine thiocarbamoylbenzoate (Compound III) or thiocarbamolybenzoate alone.

COX-1 (Homo sapiens, UniProt P23219), sequence (P23219 24-599): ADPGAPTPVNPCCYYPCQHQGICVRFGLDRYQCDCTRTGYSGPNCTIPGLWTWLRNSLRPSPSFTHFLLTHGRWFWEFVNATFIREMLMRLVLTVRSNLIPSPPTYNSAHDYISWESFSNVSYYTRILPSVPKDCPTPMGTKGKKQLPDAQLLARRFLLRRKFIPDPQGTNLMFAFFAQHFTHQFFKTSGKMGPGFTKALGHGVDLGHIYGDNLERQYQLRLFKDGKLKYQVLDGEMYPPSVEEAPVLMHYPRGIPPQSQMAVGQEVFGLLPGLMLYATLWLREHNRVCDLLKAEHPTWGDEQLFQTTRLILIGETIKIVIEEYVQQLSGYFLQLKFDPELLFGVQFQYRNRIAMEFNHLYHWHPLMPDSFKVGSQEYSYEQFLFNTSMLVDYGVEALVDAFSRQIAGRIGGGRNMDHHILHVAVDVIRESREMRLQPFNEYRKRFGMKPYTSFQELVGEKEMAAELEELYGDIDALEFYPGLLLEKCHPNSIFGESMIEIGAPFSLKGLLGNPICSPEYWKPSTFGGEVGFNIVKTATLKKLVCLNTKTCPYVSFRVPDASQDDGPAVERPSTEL

With `COc1ccc2c(c1)c(CC(=O)Oc1ccc(C(N)=S)cc1)c(C)n2C(=O)c1ccc(Cl)cc1` [Compound XIX, [1-(4-Chloro-benzoyl)-5-methoxy-2-methyl-1-H-indol-3-yl]-acetic acid 4-thiocarbamoyl-phenyl ester], the melting point is 224 to 226 °C. Also, the “thromboxane synthesis by human blood (COX-1 activity)” value in [1] (0.1, 0.3, 1 or 3 μM, 45 min, 37° C.) is reported as “concentration-dependent inhibition of COX-1 activity”. Moreover, the “thromboxane synthesis by human blood (COX-1 activity) versus indomethacin” value in [1] (concentrations of 1 and 3 μM) is “significantly greater (*p<0.05) inhibition of COX-1 activity than that produced by indomethacin”. Besides, the “Number of Adherent Leukocytes” value in series [2] (intragastric 30 μmol/kg (naproxen and Compound XX 60 μmol/kg), mean±SEM) is 3.0 ± 0.4 per 100 μm vessel length. Further, the “Percent Incidence of Gastric Damage” value in series [3] is 0%.
`CC(=O)Oc1ccccc1C(=O)Oc1ccc(C(N)=S)cc1` [Compound XVI, 2-Acetoxy-benzoic acid 4-thiocarbamoyl-pheny ester] displayed a melting point of 154 to 156 °C. Moreover, the “number of adherent leukocytes compared to the parent drug alone” value in series [2] was “significantly reduced the number of adherent leukocytes”. The “percent incidence of gastric damage compared to the parent drug alone” value in [3] (comment on Table 2) was “significantly reduced the percent incidence of gastric damage”. In [3], the “Percent Incidence of Gastric Damage” value is 0%.
The like results for `Cc1ccc(Nc2c(F)cccc2Cl)c(CC(=O)Oc2ccc(C(N)=S)cc2)c1` [Compound XVIII, 4-thiocarbamoylphenyl 2-(2-(2-chloro-6-fluorophenylamino)-5-methylphenyl)acetate] were, in that order, 120 to 122 °C, “significantly reduced the number of adherent leukocytes”, “no incidences of gastric damage” and 0%.
Turning to `COc1ccc2cc(C(C)C(=O)Oc3ccc(C(N)=S)cc3)ccc2c1` (centres unmarked) [Compound XX, 2-(6-Methoxy-naphthalen-2-yl)-propionic acid 4-thiocarbamyl-phenyl ester], the gastric damage score entry in series [4] is “significantly less damage than naproxen itself; also recorded: not detectable”. Further, the “thromboxane B2 synthesis in blood (COX-1 activity)” value in [5] is “significantly (*p<0.05) inhibited COX-1 activity”. Moreover, in series [2], the “number of adherent leukocytes compared to the parent drug alone” value was “significantly reduced the number of adherent leukocytes”. In addition, the “percent incidence of gastric damage compared to the parent drug alone” value in series [3] (rat, in vivo) is “significantly reduced the percent incidence of gastric damage”. The “gastric ulcer healing (ulcer surface area)” value in [6] is given as “significantly greater healing”.
Consider `N[C@@H](CS)C(=O)O` [L-cysteine, reference compound], for which the “H2S generation in buffer” value in series [7] (buffer pH 7.4, 37° C.) was “did not release significant H2S”. Moreover, the “H2S generation in liver homogenate with PAG” value in [7] (liver homogenate plus DL-propargylglycine 2 mM) was “markedly inhibited by PAG”.
As for `O=C(O)Cc1ccccc1Nc1c(Cl)cccc1Cl` [diclofenac, reference compound], the “paw edema (paw volume increase)” value in [8] is listed as “dose-dependently reduced paw edema”.
As to `COc1ccc(Cl)cc1C(=O)NCCc1ccc(S(=O)(=O)NC(=O)NC2CCCCC2)cc1` [glibenclamide, reference compound], the “pain perception score after glibenclamide pretreatment” value in [9] (0.8 mL colorectal distention, glibenclamide 10 mg/kg i.p. 30 min before, FIG. 3) was “did not affect the pain perception”.
With `CCC(COC(=O)c1cc(OC)c(OC)c(OC)c1)(c1ccccc1)N(C)C.NC(=S)c1ccc(C(=O)O)cc1` (centres unmarked) [trimebutine thiocarbamoylbenzoate, 3,4,5-trimethoxybenzoic acid 2-(dimethylamino)-2-phenylbutyl ester 4-thiocarbamoyl benzoate], the “perception score (AWR Score)” value in series [9] (doses equimolar to trimebutine maleate 10 mg/kg, FIG. 7) is given as “more effective than either trimebutine maleate or thiocarbamoylbenzoate in reducing visceral pain”.
